Data published in US20250163119A1, “COMPOUNDS FOR THE TREATMENT OF DIABETES OR OBESITY” (Eli Lilly and Company, priority 2023, published 2025).
*1 amine or outer side, *2 acyl side, *3 side chain or, on linkers, in order; H or OH if unused. Where a SMILES comes first, the peptide text is derived from it. Side-chain parts run from the residue outwards. [ ]: non-standard residue; d: D form. The star is where a group is joined. C20 diacid = O=C(O)CCCCCCCCCCCCCCCCCCC(=O)*; γGlu = O=C(O)[C@H](CCC(=O)[*:2])N[*:1]; NMeI = CC[C@H](C)[C@H](NC)C(=O)O; AEEA = NCCOCCOCC(=O)O

Key:
[1] = tested on: MHC-II presented peptides on human dendritic cells; test: MAPPS assay (MHC-Associated Peptide Proteomics); assay type: cell-based
Experimental: MAPPS profiles the MHC-II presented peptides on human dendritic cells treated with tested molecules. CD14+ cells, isolated from the PBMCs of normal human donors, were cultured and differentiated into immature DCs by incubation with IL-4 and GM-CSF. On day 4, culture media was replaced with fresh media containing tested molecules. On day 5, LPS was added to transform the cells into mature DCs. On day 6, cells were lysed in RIPA buffer with protease inhibitors. Immunoprecipitation of MHC-II complexes were performed using biotinylated anti-MHC-II antibody coupled to streptavidin beads. The bound complex was eluted and filtered. The isolated MHC-II peptides were analyzed by a mass spectrometer. Peptide identifications were generated by an internal proteomics pipeline using search algorithms with no enzyme and a bovine/human database with test sequences appended to the database. A KNIME workflow was used to process the identification files from the samples. Peptides identified from the test articles were aligned against the parent sequence of the test molecule. The output was used to determine the percentage of donors displaying MHC-II peptides from regions of the test molecule. Polypeptides comprising SEQ ID NOs:54, 49, 50, 29, 41, 45, 1, 22, 25 were tested in the MAPPs assay. […] Depending on the donors, up to three major clusters were observed, each slightly shifted from the others, altogether spanning residues 1-33.

CD4+ T cells = test: T cell proliferation assay; assay type: cell-based, human
Experimental: This assay assessed the ability of tested antibodies or tested MAPPS peptides to activate CD4+ T cells by inducing cellular proliferation. CD8+ T cell depleted PBMC's were prepared and labeled with CFSE. Each sample was tested with media control, keyhole limpet haemocyanin (KLH; positive clinical benchmark control), tested antibodies, or tested MAPPS peptides. Cultures were incubated for 7 days. On day 7, samples were analyzed by flow cytometry.

- MAPPS Assay >10 donors with diverse MHC ([1]; donors displaying MHC-II peptides / donors tested): 7/10
- MAPPS Assay >10 donors with diverse MHC ([1]; percentage of donors displaying MHC-II peptides): 70%
Compound: CC[C@H](C)[C@H](NC)C(=O)N[C@H](C(=O)N[C@@H](CC(C)C)C(=O)N[C@@H](CO)C(=O)N[C@@H](CC(C)C)C(=O)N[C@@H](CC(=O)O)C(=O)N[C@H](C(=O)N1CCC[C@H]1C(=O)N[C@H](C(=O)NCC(=O)N[C@@H](CC(C)C)C(=O)N[C@@H](CC(C)C)C(=O)N[C@@H](CCC(N)=O)C(=O)N[C@H](C(=O)N[C@@H](CC(C)C)C(=O)N[C@@H](CC(C)C)C(=O)N[C@@H](CCC(=O)O)C(=O)N[C@@H](CCC(N)=O)C(=O)N[C@@H](CCC(=O)O)C(=O)N[C@@H](CCCCN)C(=O)N[C@@H](CCC(N)=O)C(=O)N[C@@H](CCC(=O)O)C(=O)N[C@@H](CCCCN)C(=O)N[C@@H](CCC(=O)O)C(=O)N[C@@H](CCCCN)C(=O)N[C@@H](CCC(N)=O)C(=O)N[C@@H](CCC(N)=O)C(=O)N[C@@H](C)C(=O)N[C@@H](CCCCNC(=O)COCCOCCNC(=O)COCCOCCNC(=O)CC[C@H](NC(=O)CC[C@H](NC(=O)CCCCCCCCCCCCCCCCCCC(=O)O)C(=O)O)C(=O)O)C(=O)N[C@H](C(=O)N[C@@H](CC(N)=O)C(=O)N[C@@H](C)C(=O)N[C@@H](CCC(N)=O)C(=O)N[C@H](C(=O)N[C@@H](CC(C)C)C(=O)N[C@@H](C)C(=O)N[C@@H](CCC(N)=O)C(=O)N[C@H](C(N)=O)C(C)C)[C@@H](C)CC)[C@@H](C)O)[C@@H](C)CC)[C@@H](C)CC)C(C)C)C(C)C [SEQ ID NO: 54] (H-[NMeI]VLSLDVPIGLLQILLEQEKQEKEKQQAK([AEEA-AEEA-γGlu-γGlu-C20 diacid])TNAQILAQV-NH2)
- peptides displayed on MHC-II complexes ([1]; human dendritic cells from normal donors): at least one peptide cluster on MHC-II complexes in a subset of donors
- CD4+ T cell proliferation response in donors (CD4+ T cells; CD8+ T cell depleted PBMCs, 7 days, ten donors): elicited a response in four out of ten donors
- T Cell Proliferation Assay: protein 7-10 donors with diverse MHC (CD4+ T cells; responding donors / donors tested): 4/10
